Molecular target: T1, GCN2 (Homo sapiens, UniProt Q9P2K8)
T1 construct: purchased Carma Biosciences (so in the source)
Experiment: TR-FRET biochemical assay for inhibition of GCN2 activity
Conditions: 2 nM GCN2, 100 nM GFP-eIF2α, 150 μM ATP, 1.5 hours at 25° C.
How it was run: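 Compounds (11-point, 3-fold series) were incubated with GCN2 (2 nM final), GFP-eIF2α (100 nM final) and 150 μM ATP with 2 mM DTT for 1.5 h at 25 °C. A 1 nM Tb-anti-P-eIF2α solution was then added for 2 h at 25 °C. TR-FRET was read (ex 340 nm, em 495/520 nm) and fitted with a 4-parameter sigmoidal curve.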

T1 sequence (Q9P2K8 whole entry): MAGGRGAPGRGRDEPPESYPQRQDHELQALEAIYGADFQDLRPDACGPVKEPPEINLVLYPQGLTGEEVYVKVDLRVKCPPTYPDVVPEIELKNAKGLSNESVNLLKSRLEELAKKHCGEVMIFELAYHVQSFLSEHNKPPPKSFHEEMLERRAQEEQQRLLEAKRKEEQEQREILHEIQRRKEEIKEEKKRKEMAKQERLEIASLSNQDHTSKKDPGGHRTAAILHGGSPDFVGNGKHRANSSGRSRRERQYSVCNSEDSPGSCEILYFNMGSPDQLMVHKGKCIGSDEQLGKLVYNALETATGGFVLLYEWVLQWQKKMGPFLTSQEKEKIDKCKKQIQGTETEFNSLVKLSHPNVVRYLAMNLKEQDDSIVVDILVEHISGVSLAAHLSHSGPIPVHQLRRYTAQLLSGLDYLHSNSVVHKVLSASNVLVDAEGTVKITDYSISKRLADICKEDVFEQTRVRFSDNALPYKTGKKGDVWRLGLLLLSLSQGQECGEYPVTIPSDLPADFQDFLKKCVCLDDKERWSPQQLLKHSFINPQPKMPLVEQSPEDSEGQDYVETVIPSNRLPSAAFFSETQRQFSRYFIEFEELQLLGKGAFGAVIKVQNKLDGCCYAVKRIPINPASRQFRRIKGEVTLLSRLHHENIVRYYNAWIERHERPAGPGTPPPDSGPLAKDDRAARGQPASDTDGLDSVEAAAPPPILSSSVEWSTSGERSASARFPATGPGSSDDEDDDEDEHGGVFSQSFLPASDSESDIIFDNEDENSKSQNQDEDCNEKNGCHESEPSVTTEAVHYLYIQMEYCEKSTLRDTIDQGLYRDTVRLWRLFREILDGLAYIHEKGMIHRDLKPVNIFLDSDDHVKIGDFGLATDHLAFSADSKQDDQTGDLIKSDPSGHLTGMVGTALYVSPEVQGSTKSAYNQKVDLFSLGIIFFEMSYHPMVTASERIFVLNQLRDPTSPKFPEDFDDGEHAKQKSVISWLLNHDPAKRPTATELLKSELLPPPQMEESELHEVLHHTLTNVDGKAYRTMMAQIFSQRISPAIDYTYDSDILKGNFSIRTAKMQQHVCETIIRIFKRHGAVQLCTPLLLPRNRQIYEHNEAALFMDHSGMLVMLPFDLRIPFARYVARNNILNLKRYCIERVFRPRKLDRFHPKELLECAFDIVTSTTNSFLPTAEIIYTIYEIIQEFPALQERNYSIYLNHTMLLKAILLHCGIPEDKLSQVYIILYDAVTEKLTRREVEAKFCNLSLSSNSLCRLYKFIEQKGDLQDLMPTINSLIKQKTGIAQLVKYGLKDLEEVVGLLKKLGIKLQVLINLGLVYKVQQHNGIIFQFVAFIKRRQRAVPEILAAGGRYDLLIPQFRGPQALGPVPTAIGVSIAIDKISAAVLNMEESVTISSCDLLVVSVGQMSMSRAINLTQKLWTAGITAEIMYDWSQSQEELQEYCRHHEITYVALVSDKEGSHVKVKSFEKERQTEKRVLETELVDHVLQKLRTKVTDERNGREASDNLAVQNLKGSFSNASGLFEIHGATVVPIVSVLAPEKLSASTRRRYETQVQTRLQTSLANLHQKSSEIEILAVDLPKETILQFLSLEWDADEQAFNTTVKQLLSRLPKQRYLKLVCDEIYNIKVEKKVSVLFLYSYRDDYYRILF

Compound | IC50 [nM]
COc1ncc(F)cc1S(=O)(=O)Nc1ccc(F)c(COc2cnc3[nH]nc(CC(F)(F)F)c3c2)c1F [Compound 80, N-[2,4-difluoro-3-([[3-(2,2,2-trifluoroethyl)-1H-pyrazolo[3,4-b]pyridin-5-yl]oxy]methyl)phenyl]-5-fluoro-2-methoxypyridine-3-sulfonamide] | < 50
COc1ncc(F)cc1S(=O)(=O)Nc1ccc(F)c(COc2cnc3[nH]nc(C(C)(F)F)c3c2)c1F [Compound 81, N-[3-([[3-(1,1-difluoroethyl)-1H-pyrazolo[3,4-b]pyridin-5-yl]oxy]methyl)-2,4-difluorophenyl]-5-fluoro-2-methoxypyridine-3-sulfonamide] | < 50
COc1ncc(F)cc1S(=O)(=O)Nc1ccc(F)c(COc2cnn3cnc(C)c3c2)c1F [Compound 82, N-[2,4-difluoro-3-[([5-methylimidazo[1,5-b]pyridazin-3-yl]oxy)methyl]phenyl]-5-fluoro-2-methoxypyridine-3-sulfonamide] | < 50
COc1ncc(F)cc1S(=O)(=O)Nc1ccc(F)c(COc2cnn3cnc(C(F)(F)F)c3c2)c1F [Compound 83, N-[2,4-difluoro-3-([[5-(trifluoromethyl)imidazo[1,5-b]pyridazin-3-yl]oxy]methyl)phenyl]-5-fluoro-2-methoxypyridine-3-sulfonamide] | < 50
COc1ncc(F)cc1S(=O)(=O)Nc1ccc(F)c(COc2cnc3[nH]nc(-c4ccccc4)c3c2)c1F [Compound 84, N-[2,4-difluoro-3-[([3-phenyl-1H-pyrazolo[3,4-b]pyridin-5-yl]oxy)methyl]phenyl]-5-fluoro-2-methoxypyridine-3-sulfonamide] | < 50
COc1ncc(F)cc1S(=O)(=O)Nc1ccc(F)c(COc2cnc3[nH]nc(C)c3c2-c2ccccc2)c1F [Compound 85, N-[2,4-difluoro-3-[([3-methyl-4-phenyl-1H-pyrazolo[3,4-b]pyridin-5-yl]oxy)methyl]phenyl]-5-fluoro-2-methoxypyridine-3-sulfonamide] | 50 to 500
COc1ncc(F)cc1S(=O)(=O)Nc1ccc(F)c(COc2cnc3[nH]nc(C)c3c2C2CC2)c1F [Compound 86, N-[3-[([4-cyclopropyl-3-methyl-1H-Pyrazolo[3,4-b]pyridin-5-yl]oxy)methyl]-2,4-difluorophenyl]-5-fluoro-2-methoxypyridine-3-sulfonamide] | 50 to 500
COc1ncc(F)cc1S(=O)(=O)Nc1ccc(F)c(COc2cnc3[nH]nc(C)c3c2-c2ccncc2)c1F [Compound 87, N-[2,4-difluoro-3-([[3-methyl-4-(pyridin-4-yl)-1H-pyrazolo[3,4-b]pyridin-5-yl]oxy]methyl)phenyl]-5-fluoro-2-methoxypyridine-3-sulfonamide] | 50 to 500
COc1ncc(F)cc1S(=O)(=O)Nc1ccc(F)c(COc2cnc3[nH]nc(C)c3c2C(C)C)c1F [Compound 88, N-[2,4-difluoro-3-[([4-isopropyl-3-methyl-1H-pyrazolo[3,4-b]pyridin-5-yl]oxy)methyl]phenyl]-5-fluoro-2-methoxypyridine-3-sulfonamide] | > 1000
COc1ncc(F)cc1S(=O)(=O)Nc1ccc(F)c(COc2cnc3[nH]nc(C)c3c2Cc2ccccc2)c1F [Compound 89, N-[3-[([4-benzyl-3-methyl-1H-pyrazolo[3,4-b]pyridin-5-yl]oxy)methyl]-2,4-difluorophenyl]-5-fluoro-2-methoxypyridine-3-sulfonamide] | > 1000
COc1ncc(F)cc1S(=O)(=O)Nc1ccc(F)c(COc2cnc3[nH]nc(C)c3c2-c2ccccn2)c1F [Compound 90, N-[2,4-difluoro-3-([[3-methyl-4-(pyridin-2-yl)-1H-pyrazolo[3,4-b]pyridin-5-yl]oxy]methyl)phenyl]-5-fluoro-2-methoxypyridine-3-sulfonamide] | 50 to 500
COc1ncc(F)cc1S(=O)(=O)Nc1ccc(F)c(COc2cnc3[nH]nc(C)c3c2-c2cccnc2)c1F [Compound 91, N-[2,4-difluoro-3-([[3-methyl-4-(pyridin-3-yl)-1H-pyrazolo[3,4-b]pyridin-5-yl]oxy]methyl)phenyl]-5-fluoro-2-methoxypyridine-3-sulfonamide] | 50 to 500
COc1ncc(F)cc1S(=O)(=O)Nc1ccc(F)c(COc2cnc3[nH]nc(C)c3c2C2CCCC2)c1F [Compound 92, N-(3-(((4-cyclopentyl-3-methyl-1H-pyrazolo[3,4-b]pyridin-5-yl)oxy)methyl)-2,4-difluorophenyl)-5-fluoro-2-methoxypyridine-3-sulfonamide] | 500 to 1000
COc1ncc(F)cc1S(=O)(=O)Nc1ccc(F)c(COc2cnc3[nH]nc(C)c3c2C2CCN(C)CC2)c1F [Compound 93, N-(2,4-difluoro-3-(((3-methyl-4-(1-methylpiperidin-4-yl)-1H-pyrazolo[3,4-b]pyridin-5-yl)oxy)methyl)phenyl)-5-fluoro-2-methoxypyridine-3-sulfonamide] | > 1000
COc1ncc(F)cc1S(=O)(=O)Nc1ccc(F)c(COc2cnc3[nH]nc(C)c3c2N2CCCCC2)c1F [Compound 94, N-(2,4-difluoro-3-(((3-methyl-4-(piperidin-1-yl)-1H-pyrazolo[3,4-b]pyridin-5-yl)oxy)methyl)phenyl)-5-fluoro-2-methoxypyridine-3-sulfonamide] | 50 to 500

— US20240150345A1, “GCN2 MODULATING COMPOUNDS AND USES THEREOF” (HiberCell, Inc., priority 2021, published 2024)
